In patent US10538521B2, “Pyrimidine derivative having antimalarial activity” (CARNA BIOSCIENCES, INC., priority 2016, dated 2020) one finds IC50 data, which are given here for 21 compounds.

Assay [1] relates to K1 strain, a drug resistant strain of Plasmodium falciparum. Description: In vitro antimalarial assay (p-LDH, Malstat), K1 strain. In kind it is cell-based. The settings on record: P. falciparum K1 (drug resistant), 72 h culture, p-LDH readout, read-out: Antimalarial activity (IC50 value), Strain K1. In a few lines:
(§1)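 P. falciparum FCR3 and K1 cultured in human erythrocytes (RPMI 1640, 10% human plasma; 2% hematocrit, 0.5 or 1% parasitaemia) with compound at 12.5 to 0.0001 μM final for 72 h at 37° C (3% O2-4% CO2-93% N2). Growth read as p-LDH activity (Malstat/NBT-PES, A655 nm) after freeze-thaw; IC50 from concentration-response curve.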

The test system of assay [2] is FCR3 strain, a drug sensitive strain of Plasmodium falciparum. Description: In vitro antimalarial assay (p-LDH, Malstat), FCR3 strain. It counts as cell-based. The settings on record: P. falciparum FCR3 (drug sensitive), 72 h culture, p-LDH readout, read-out: Antimalarial activity (IC50 value), Strain FCR3. In a few lines:
as §1

As usually defined, the IC50 is the concentration needed to halve the response being measured. Regarding `Cc1cc(C)nc(Nc2nc(Nc3ccn4ccnc4c3)cc(N3CC=CC3)n2)c1` [Example 139, 6-(2,5-dihydro-1H-pyrrol-1-yl)-N2-(4,6-dimethylpyridin-2-yl)-N4-(imidazo[1,2-a]pyridin-7-yl)pyrimidine-2,4-diamine], the IC50 in assay [1] and in assay [2] was less than 100 nM throughout.
Turning to `Cc1cc(C)nc(Nc2nc(Nc3ccn4ccnc4c3)cc(N3CCC(N(C)C)CC3)n2)c1` [Example 134, 6-(4-(dimethylamino)piperidin-1-yl)-N2-(4,6-dimethylpyridin-2-yl)-N4-(imidazo[1,2-a]pyridin-7-yl)pyrimidine-2,4-diamine], the half-inhibitory concentration (IC50) in assay [1] and in assay [2] was less than 100 nM in each case.
With `CCCCc1cccc(Nc2nc(Nc3ccn4ccnc4c3)cc(N3C[C@H]4CCC[C@H]4C3)n2)n1` [Example 179, N2-(6-butylpyridin-2-yl)-6-((3aR,6aS)-hexahydrocyclopenta[c]pyrrol-2(1H)-yl)-N4-(imidazo [1,2-a]pyridin-7-yl)pyrimidine-2,4-diamine], the IC50 in assay [1] and in assay [2] was 100 to 1000 nM in each case.
Take `CCc1ccnc(Nc2nc(Nc3ccn4ccnc4c3)cc(N3CCC(N(C)C)CC3)n2)c1` [Example 129, 6-(4-(dimethylamino)piperidin-1-yl)-N2-(4-ethylpyridin-2-yl)-N4-(imidazo[1,2-a]pyridin-7-yl)pyrimidine-2,4-diamine]: the IC50 in assay [1] and in assay [2] was less than 100 nM in each case.
As to `CN(C)CCOc1cccc(Nc2nc(Nc3ccn4ccnc4c3)cc(N3CCCC3)n2)n1` [Example 155, N2-{6-[2-(dimethylamino)ethoxy]pyridin-2-yl}-N4-(imidazo[1,2-a]pyridin-7-yl)-6-(pyrrolidin-1-yl)pyrimidine-2,4-diamine], the IC50 in assay [1] and in assay [2] was less than 100 nM in each case.
For the compound `CN1CCC(Oc2ccc(Nc3nc(Nc4ccn5ccnc5c4)cc(N4CCOCC4)n3)cn2)CC1` [Example 89, N4-(imidazo[1,2-a]pyridin-7-yl)-N2-(6-((1-methylpiperidin-4-yl)oxy)pyridin-3-yl)-6-morpholinopyrimidine-2,4-diamine], the results for the half-inhibitory concentration (IC50) in assay [1] and in assay [2] were 100 to 1000 nM and less than 100 nM, respectively.
For `c1ccc(COc2ccc(Nc3nc(Nc4ccn5ccnc5c4)cc(N4CCOCC4)n3)cn2)cc1` [Example 91, N2-(6-(benzyloxy)pyridin-3-yl)-N4-(imidazo[1,2-a]pyridin-7-yl)-6-morpholinopyrimidine-2,4-diamine], the IC50 is 100 to 1000 nM in assay [1] and less than 100 nM in assay [2].
Take `Cc1cccc(Nc2nc(Nc3ccn4ccnc4c3)cc(N3CCN(C)CC3)n2)n1` [Example 39, N4-(imidazo[1,2-a]pyridin-7-yl)-6-(4-methylpiperazin-1-yl)-N2-(6-methylpyridin-2-yl)pyrimidine-2,4-diamine]: the IC50 in assay [1] and in assay [2] was 1000 to 10000 nM in each case.
On to `COc1ccncc1Nc1nc(Nc2ccn3ccnc3c2)cc(N2CCOCC2)n1` [Example 23, N4-(Imidazo[1,2-a]pyridin-7-yl)-N2-(4-methoxypyridin-3-yl)-6-morpholinopyrimidine-2,4-diamine], for which the IC50 lay in the range of 1000 to 10000 nM in assay [1] and 100 to 1000 nM in assay [2].
In the same order, the values of `COc1ccnc(Nc2nc(Nc3ccn4ccnc4c3)cc(N3CCCC3)n2)c1` [Example 128, N4-(imidazo[1,2-a]pyridin-7-yl)-N2-(4-methoxypyridin-2-yl)-6-(pyrrolidin-1-yl)pyrimidine-2,4-diamine] are less than 100 nM and less than 100 nM.
For the compound `c1cc(Nc2nc(Nc3ccn4ccnc4c3)cc(N3CCCC3)n2)nc(OCCN2CCOCC2)c1` [Example 154, N4-(imidazo[1,2-a]pyridin-7-yl)-N2-[6-(2-morpholinoethoxy)pyridin-2-yl]-6-(pyrrolidin-1-yl)pyrimidine-2,4-diamine], the IC50 in assay [1] and in assay [2] was less than 100 nM throughout.
Take `CCCc1ccnc(Nc2nc(Nc3ccn4ccnc4c3)cc(N3CCCCC3)n2)c1` [Example 75, N4-(imidazo[1,2-a]pyridin-7-yl)-6-(piperidin-1-yl)-N2-(4-propylpyridin-2-yl)pyrimidine-2,4-diamine]: the values for the IC50 in assay [1] and in assay [2] were 100 to 1000 nM and less than 100 nM, respectively.
With `Cc1cc(C)nc(Nc2nc(Nc3ccn4ccnc4c3)cc(N3CCC(N4CCCCC4)CC3)n2)c1` [Example 133, 6-([1,4′-bipiperidin]-1′-yl)-N2-(4,6-dimethylpyridin-2-yl)-N4-(imidazo[1,2-a]pyridin-7-yl)pyrimidine-2,4-diamine], the IC50 in assay [1] and in assay [2] was less than 100 nM in each case.
Consider `CCCCc1cc(OC)cc(Nc2nc(Nc3ccn4ccnc4c3)cc(N3CCCCC3)n2)n1` [Example 197, N2-(6-butyl-4-methoxypyridin-2-yl)-N4-(imidazo[1,2-a]pyridin-7-yl)-6-(piperidin-1-yl) pyrimidine-2,4-diamine], for which the IC50 in assay [1] and in assay [2] was 100 to 1000 nM throughout.
For the compound `COc1ccnc(Nc2nc(Nc3ccn4ccnc4c3)cc(N3CCC(C)(C)C3)n2)c1` [Example 209, 6-(3,3-dimethylpyrrolidin-1-yl)-N4-(imidazo[1,2-a]pyridin-7-yl)-N2-(4-methoxypyridin-2-yl) pyrimidine-2,4-diamine], the IC50 in assay [1] and in assay [2] was 100 to 1000 nM throughout.
With `CCc1ccnc(Nc2nc(Nc3ccn4ccnc4c3)cc(N3CCN(C)[C@@H](C)C3)n2)c1` [Example 101, (S)-6-(3,4-dimethylpiperazin-1-yl)-N2-(4-ethylpyridin-2-yl)-N4-(imidazo[1,2-a]pyridin-7-yl)pyrimidine-2,4-diamine], the values for the IC50 in assay [1] and in assay [2] were 1000 to 10000 nM and 100 to 1000 nM, respectively.
In the same order, the values of `Cc1cc(C)nc(Nc2nc(Nc3ccn4ccnc4c3)cc(N3CCC(N(C)C)C3)n2)c1` (stereo not drawn) [Example 137, 6-(3-(dimethylamino)pyrrolidin-1-yl)-N2-(4,6-dimethylpyridin-2-yl)-N4-(imidazo[1,2-a]pyridin-7-yl)pyrimidine-2,4-diamine] are less than 100 nM and less than 100 nM.
With `COc1ncccc1Nc1nc(Nc2ccn3ccnc3c2)cc(N2CCOCC2)n1` [Example 5, N4-(Imidazo[1,2-a]pyridin-7-yl)-N2-(2-methoxypyridin-3-yl)-6-morpholinopyrimidine-2,4-diamine], the concentration for half-maximal inhibition (IC50) in assay [1] and in assay [2] was 1000 to 10000 nM in each case.
With `Cc1ccc(Nc2nc(Nc3ccn4ccnc4c3)cc(N3CCCCC3)n2)cn1` [Example 79, N4-(imidazo[1,2-a]pyridin-7-yl)-N2-(6-methylpyridin-3-yl)-6-(piperidin-1-yl)pyrimidine-2,4-diamine], the IC50 in assay [1] and in assay [2] was 100 to 1000 nM throughout.
For the compound `Cc1ccc(Nc2nc(Nc3ccn4ccnc4c3)cc(-n3ccnc3)n2)nc1` [Example 43, N4-(imidazo[1,2-a]pyridin-7-yl)-6-(1H-imidazol-1-yl)-N2-(5-methylpyridin-2-yl)pyrimidine-2,4-diamine], the values for the IC50 in assay [1] and in assay [2] were 100 to 1000 nM and less than 100 nM, respectively.
In the same order, the values of `CCc1ccnc(Nc2nc(Nc3ccn4ccnc4c3)cc(N3CCN(C(=O)OC(C)(C)C)[C@@H](C)C3)n2)c1` [Example 103, (S)-tert-butyl 4-(2-((4-ethylpyridin-2-yl)amino)-6-(imidazo[1,2-a]pyridin-7-ylamino)pyrimidin-4-yl)-2-methylpiperazine-1-carboxylate] are 100 to 1000 nM and 100 to 1000 nM.
